Experimental data taken from patent US6479537B2, “Synergistic ectoparasiticidal methods and compositions” (American Cyanamid Company, priority 2000, dated 2002).
In brackets after ≈: the same amount, converted by molar mass. Several values for one entry are separate records, joined by “and”; a condition that tells them apart may be missing. Equal values may be shown once.

Test system: newly emerged larvae of the blowfly, Lucilia sericata
Assay: treated paper/serum bioassay, contact and/or ingestion activity against newly emerged blowfly larvae
Assay type: in vivo
Settings: single compound
Procedure: Contact and/or ingestion activities of compounds against newly emerged larvae of the blowfly, Lucilia sericata, are tested using a treated paper/serum bioassay. In this assay, test compounds diluted to the required concentrations in acetone are applied to filter paper discs and allowed to dry. Bovine serum and newly emerged blowfly larvae are added to the discs and mortality assessed at 24 and 48 hours.

[1] = larval mortality assessed at 48 hours

CCOCn1c(-c2ccc(Cl)cc2)c(C#N)c(Br)c1C(F)(F)F [C, 4-bromo-2-(p-chlorophenyl)-1-(ethoxymethyl)-5-(trifluoromethyl)pyrrole-3-carbonitrile]
LC50 (Lucilia sericata, 48 h, larval mortality assessed at 48 hours, read-out: Approximate LC50 48 hour): 2.5 µg/mL (≈ 6.13 µM) | Approximate LC50 48 hour [1]: 4.69 µg/mL

moxidectin
Approximate LC50 24 hour (larval mortality assessed at 24 hours): 1.54 µg/mL and 0.85 µg/mL | Approximate LC50 48 hour [1]: 0.80 µg/mL and 0.63 µg/mL
